Assays:
[1] = species on record: Sus scrofa; assay: Activity at pig kidney LAP after 40 mins by Michaelis-Menten equation; assay type: tissue-based
[2] = tested on: HCT-116; assay: Drug uptake in human HCT116 cells at 20 uM after 20 mins by DAPI staining based microscopic analysis in presence of bestatin; assay type: ADME, cell-based; conditions: hct-116, 20 min
[3] = tested on: HCT-116; assay: Drug uptake in human HCT116 cells at 20 uM after 20 mins by DAPI staining based microscopic analysis; assay type: ADME, cell-based; conditions: hct-116, 20 min
[4] = Competitive inhibition of pig kidney LAP activity using N-(6-Methoxypyridine-3-yl), (S)-2-amino-4-methylpentanamide as substrate after 10 mins by Michaelis-Menten equation
[5] = Competitive inhibition of pig kidney LAP activity using l-Leucine-p-nitroanilide as substrate after 10 mins by Michaelis-Menten equation
[6] = Competitive inhibition of pig kidney LAP activity using DCDHF-Leu as substrate after 10 mins by Michaelis-Menten equation

Compound	Km [1] [µM]	Vmax [1] [µmol/min/mg]	other results
CC(C)C[C@H](N)C(=O)Nc1ccc(/C=C/C2=C(C#N)C(=C(C#N)C#N)OC2(C)C)cc1	8.87	6.64	Drug uptake [2]: Not Active; fold change (FC) [3]: 6
CC1(C)OC(=C(C#N)C#N)C(C#N)=C1/C=C/c1ccc(N)cc1			Drug uptake [3]: Active
CC(C)C[C@H](NC(=O)[C@@H](O)[C@H](N)Cc1ccccc1)C(=O)O [UBENIMEX]			IC50 [4]: 7 µM; IC50 [5]: 25 µM; IC50 [6]: 4.41 µM

Continued, in another order:

Km [1] [µM]	Compound	Vmax [1] [µmol/min/mg]	other results
3000	CC(C)C[C@H](N)C(=O)Nc1ccc([N+](=O)[O-])cc1	3.9	
65	COc1ccc(NC(=O)[C@@H](N)CC(C)C)cn1	7.7	

Reference: ChEMBL document CHEMBL1759872, “Small-molecule probe using dual signals to monitor leucine aminopeptidase activity” (Bioorg Med Chem Lett, 2011)
